Experiments:
[1] = test system: E. coli ATCC 25922 (SEN) and E. coli NCTC13846 (MDR); assay: Adaptive laboratory evolution (ALE), relative MIC of evolved lines; assay type: cell-based, Escherichia coli
How it was run: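 Ten parallel populations per antibiotic–ancestor pair were evolved in MHB at 37 °C, starting near 50% growth-inhibiting drug. Every 72 h they were passaged into 0.5–2.5× increasing concentrations, keeping the highest-drug well with OD600 > 0.2.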

[2] = test system: A. baumannii ATCC 17978 (SEN) and A. baumannii ATCC BAA-1605 (MDR); assay: as above; assay type: cell-based, Acinetobacter baumannii
Source text: Using the same set of bacterial strains, we initiated adaptive laboratory evolution with the aim to maximize the level of antibiotic resistance in the populations achieved during a longer, but fixed time period.
An established protocol for adaptive laboratory evolution[46],[73] was followed to propagate populations with the highest resistance levels. Starting with an antibiotic concentration that caused approximately 50% growth inhibition, ten parallel populations for each antibiotic-ancestor strain combination were grown for 72 hours at 37 °C with continuous shaking (300 RPM). MHB broth medium was used unless stated otherwise. After each incubation, 20 µl of each culture was transferred to four new wells containing fresh medium with increasing antibiotic concentrations (0.5×, 1×, 1.5×, and 2.5× the previous concentration) in a chessboard layout to monitor potential cross-contamination. Growth was monitored by measuring OD600 using a Biotek Synergy 2 microplate reader, and only populations grown in the highest drug concentration with an OD600 > 0.2 were transferred further.
A robotic liquid handling system was used to automatically prepare a 11 to 16-step serial dilution in 384-well microtiter plates (Greiner). A final concentration of 5 × 10^5 bacterial cells per mL were inoculated into each well containing 60 µL MHB medium. Bacterial cultures were incubated at 37 °C with continuous shaking (Infors shaker, 900 rpm with 3 mm throw) for 18 hours (2 replicates from each). Cell growth was monitored by measuring the optical density (OD600 values, using Biotek Synergy microplate reader). MIC was defined as the antibiotic concentration of complete growth inhibition (i.e., OD600 < 0.05). Relative MIC was calculated as follows:1 relativeMIC=MICevolved/MICancestor […]
Supplementary Figure 4. Resistance levels following adaptive laboratory evolution across bacterial strains. The level of resistance was measured as the fold change in relative MIC between evolved and ancestral strains after ~60 days of adaptive laboratory evolution. Data are grouped by bacterial strain (A. baumannii (AB), E. coli (EC), K. pneumoniae (KP), and P. aeruginosa (PA)) and categorized as either multidrug-resistant (MDR) or sensitive (SEN). Each data point represents a laboratory evolved line, and boxplots show the median, first and third quartiles, with whiskers indicating the 5th and 95th percentiles.
Statistical analysis was performed using two-sided Dunn’s post-hoc test with Benjamini-Hochberg correction for multiple comparisons (****/ ***/ **/ * indicates p < 0.0001/ 0.001/ 0.01/ 0.05). For detailed information on antibiotic and bacterial species, see Supplementary Table 1. For mode of action groups, refer to Table 1. Source data are provided as a Source Data file.

CN(C)[C@@H]1C(O)=C(C(N)=O)C(=O)[C@@]2(O)C(O)=C3C(=O)c4c(O)c(NC(=O)CN5CCCC5)cc(F)c4C[C@H]3C[C@@H]12 [Eravacycline]
Relative MIC (log10) ([1]; EC-MDR (Escherichia coli NCTC 13846), evolved line 1 adapted to the named antibiotic): 1.505
Relative MIC (log10) ([1]; EC-MDR (Escherichia coli NCTC 13846), evolved line 3 adapted to the named antibiotic): 1.204
Relative MIC (log10) ([1]; EC-MDR (Escherichia coli NCTC 13846), evolved line 4 adapted to the named antibiotic): 1.204
Relative MIC (log10) ([1]; EC-MDR (Escherichia coli NCTC 13846), evolved line 7 adapted to the named antibiotic): 1.204
Relative MIC (log10) ([1]; EC-MDR (Escherichia coli NCTC 13846), evolved line 9 adapted to the named antibiotic): 1.505
Relative MIC ([1]; EC-MDR (NCTC 13846), evolved line 1, MIC of evolved line / MIC of ancestor): 32
Relative MIC ([1]; EC-MDR (NCTC 13846), evolved line 2, MIC of evolved line / MIC of ancestor): 16
Relative MIC ([1]; EC-MDR (NCTC 13846), evolved line 3, MIC of evolved line / MIC of ancestor): 16
Relative MIC ([1]; EC-MDR (NCTC 13846), evolved line 4, MIC of evolved line / MIC of ancestor): 16
Relative MIC ([1]; EC-MDR (NCTC 13846), evolved line 5, MIC of evolved line / MIC of ancestor): 8
Relative MIC ([1]; EC-MDR (NCTC 13846), evolved line 7, MIC of evolved line / MIC of ancestor): 16
Relative MIC ([1]; EC-MDR (NCTC 13846), evolved line 8, MIC of evolved line / MIC of ancestor): 16
Relative MIC ([1]; EC-MDR (NCTC 13846), evolved line 9, MIC of evolved line / MIC of ancestor): 32
Relative MIC ([1]; EC-MDR (NCTC 13846), evolved line 10, MIC of evolved line / MIC of ancestor): 8
Relative MIC ([1]; EC-SEN (ATCC 25922), evolved line 1, MIC of evolved line / MIC of ancestor): 64
Relative MIC ([1]; EC-SEN (ATCC 25922), evolved line 2, MIC of evolved line / MIC of ancestor): 16
Relative MIC (log10) ([1]; EC-SEN (Escherichia coli ATCC 25922), evolved line 1 adapted to the named antibiotic): 1.806
Relative MIC (log10) ([1]; EC-SEN (Escherichia coli ATCC 25922), evolved line 4 adapted to the named antibiotic): 1.204
Relative MIC (log10) ([1]; EC-SEN (Escherichia coli ATCC 25922), evolved line 7 adapted to the named antibiotic): 1.204
Relative MIC (log10) ([1]; EC-SEN (Escherichia coli ATCC 25922), evolved line 8 adapted to the named antibiotic): 1.204
Relative MIC ([1]; EC-SEN, Escherichia coli ATCC 25922, evolved line 3 versus ancestor): 8
Relative MIC ([1]; EC-SEN, Escherichia coli ATCC 25922, evolved line 4 versus ancestor): 16
Relative MIC ([1]; EC-SEN, Escherichia coli ATCC 25922, evolved line 6 versus ancestor): 8
Relative MIC ([1]; EC-SEN, Escherichia coli ATCC 25922, evolved line 7 versus ancestor): 16
Relative MIC ([1]; EC-SEN, Escherichia coli ATCC 25922, evolved line 8 versus ancestor): 16
Relative MIC ([1]; EC-SEN, Escherichia coli ATCC 25922, evolved line 9 versus ancestor): 16
Relative MIC ([1]; EC-SEN, Escherichia coli ATCC 25922, evolved line 10 versus ancestor): 32
Relative MIC ([1]; Escherichia coli ATCC 25922 (EC-SEN), evolved line 1): 64
Relative MIC ([1]; Escherichia coli ATCC 25922 (EC-SEN), evolved line 2): 16
Relative MIC ([1]; Escherichia coli ATCC 25922 (EC-SEN), evolved line 3): 8
Relative MIC ([1]; Escherichia coli ATCC 25922 (EC-SEN), evolved line 4): 16
Relative MIC ([1]; Escherichia coli ATCC 25922 (EC-SEN), evolved line 6): 8
Relative MIC ([1]; Escherichia coli ATCC 25922 (EC-SEN), evolved line 7): 16
Relative MIC ([1]; Escherichia coli ATCC 25922 (EC-SEN), evolved line 8): 16
Relative MIC ([1]; Escherichia coli ATCC 25922 (EC-SEN), evolved line 9): 16
Relative MIC ([1]; Escherichia coli ATCC 25922 (EC-SEN), evolved line 10): 32
Relative MIC ([1]; Escherichia coli NCTC 13846 (EC-MDR), evolved line 1): 32
Relative MIC ([1]; Escherichia coli NCTC 13846 (EC-MDR), evolved line 2): 16
Relative MIC ([1]; Escherichia coli NCTC 13846 (EC-MDR), evolved line 3): 16
Relative MIC ([1]; Escherichia coli NCTC 13846 (EC-MDR), evolved line 4): 16
Relative MIC ([1]; Escherichia coli NCTC 13846 (EC-MDR), evolved line 5): 8
Relative MIC ([1]; Escherichia coli NCTC 13846 (EC-MDR), evolved line 7): 16
Relative MIC ([1]; Escherichia coli NCTC 13846 (EC-MDR), evolved line 8): 16
Relative MIC ([1]; Escherichia coli NCTC 13846 (EC-MDR), evolved line 9): 32
Relative MIC ([1]; Escherichia coli NCTC 13846 (EC-MDR), evolved line 10): 8
Relative MIC ([2]; AB-MDR (ATCC BAA 1605), evolved line 1, MIC of evolved line / MIC of ancestor): 16
Relative MIC ([2]; AB-MDR (ATCC BAA 1605), evolved line 2, MIC of evolved line / MIC of ancestor): 32
Relative MIC ([2]; AB-MDR (ATCC BAA 1605), evolved line 3, MIC of evolved line / MIC of ancestor): 32
Relative MIC ([2]; AB-MDR (ATCC BAA 1605), evolved line 4, MIC of evolved line / MIC of ancestor): 32
Relative MIC ([2]; AB-MDR (ATCC BAA 1605), evolved line 5, MIC of evolved line / MIC of ancestor): 16
Relative MIC ([2]; AB-MDR (ATCC BAA 1605), evolved line 6, MIC of evolved line / MIC of ancestor): 32
Relative MIC ([2]; AB-MDR (ATCC BAA 1605), evolved line 7, MIC of evolved line / MIC of ancestor): 32
Relative MIC ([2]; AB-MDR (ATCC BAA 1605), evolved line 8, MIC of evolved line / MIC of ancestor): 32
Relative MIC ([2]; AB-MDR (ATCC BAA 1605), evolved line 9, MIC of evolved line / MIC of ancestor): 32
Relative MIC ([2]; AB-MDR (ATCC BAA 1605), evolved line 10, MIC of evolved line / MIC of ancestor): 32
Relative MIC (log10) ([2]; AB-MDR (Acinetobacter baumannii ATCC BAA 1605), evolved line 2 adapted to the named antibiotic): 1.505
Relative MIC (log10) ([2]; AB-MDR (Acinetobacter baumannii ATCC BAA 1605), evolved line 3 adapted to the named antibiotic): 1.505
Relative MIC (log10) ([2]; AB-MDR (Acinetobacter baumannii ATCC BAA 1605), evolved line 4 adapted to the named antibiotic): 1.505
Relative MIC (log10) ([2]; AB-MDR (Acinetobacter baumannii ATCC BAA 1605), evolved line 6 adapted to the named antibiotic): 1.505
Relative MIC (log10) ([2]; AB-MDR (Acinetobacter baumannii ATCC BAA 1605), evolved line 10 adapted to the named antibiotic): 1.505
Relative MIC ([2]; AB-SEN (ATCC 17978), evolved line 1, MIC of evolved line / MIC of ancestor): 64
Relative MIC ([2]; AB-SEN (ATCC 17978), evolved line 2, MIC of evolved line / MIC of ancestor): 128
Relative MIC ([2]; AB-SEN (ATCC 17978), evolved line 3, MIC of evolved line / MIC of ancestor): 128
Relative MIC ([2]; AB-SEN (ATCC 17978), evolved line 4, MIC of evolved line / MIC of ancestor): 128
Relative MIC ([2]; AB-SEN (ATCC 17978), evolved line 5, MIC of evolved line / MIC of ancestor): 128
Relative MIC ([2]; AB-SEN (ATCC 17978), evolved line 6, MIC of evolved line / MIC of ancestor): 128
Relative MIC ([2]; AB-SEN (ATCC 17978), evolved line 7, MIC of evolved line / MIC of ancestor): 128
Relative MIC ([2]; AB-SEN (ATCC 17978), evolved line 8, MIC of evolved line / MIC of ancestor): 64
Relative MIC ([2]; AB-SEN (ATCC 17978), evolved line 9, MIC of evolved line / MIC of ancestor): 128
Relative MIC ([2]; AB-SEN (ATCC 17978), evolved line 10, MIC of evolved line / MIC of ancestor): 128
Relative MIC (log10) ([2]; AB-SEN (Acinetobacter baumannii ATCC 17978), evolved line 2 adapted to the named antibiotic): 2.107
Relative MIC (log10) ([2]; AB-SEN (Acinetobacter baumannii ATCC 17978), evolved line 4 adapted to the named antibiotic): 2.107
Relative MIC (log10) ([2]; AB-SEN (Acinetobacter baumannii ATCC 17978), evolved line 6 adapted to the named antibiotic): 2.107
Relative MIC (log10) ([2]; AB-SEN (Acinetobacter baumannii ATCC 17978), evolved line 8 adapted to the named antibiotic): 1.806
Relative MIC (log10) ([2]; AB-SEN (Acinetobacter baumannii ATCC 17978), evolved line 9 adapted to the named antibiotic): 2.107
Relative MIC ([2]; Acinetobacter baumannii ATCC 17978 (AB-SEN), evolved line 1): 64
Relative MIC ([2]; Acinetobacter baumannii ATCC 17978 (AB-SEN), evolved line 2): 128
Relative MIC ([2]; Acinetobacter baumannii ATCC 17978 (AB-SEN), evolved line 3): 128
Relative MIC ([2]; Acinetobacter baumannii ATCC 17978 (AB-SEN), evolved line 4): 128
Relative MIC ([2]; Acinetobacter baumannii ATCC 17978 (AB-SEN), evolved line 5): 128
Relative MIC ([2]; Acinetobacter baumannii ATCC 17978 (AB-SEN), evolved line 6): 128
Relative MIC ([2]; Acinetobacter baumannii ATCC 17978 (AB-SEN), evolved line 7): 128
Relative MIC ([2]; Acinetobacter baumannii ATCC 17978 (AB-SEN), evolved line 8): 64
Relative MIC ([2]; Acinetobacter baumannii ATCC 17978 (AB-SEN), evolved line 9): 128
Relative MIC ([2]; Acinetobacter baumannii ATCC 17978 (AB-SEN), evolved line 10): 128
Relative MIC ([2]; Acinetobacter baumannii ATCC BAA 1605 (AB-MDR), evolved line 2): 32
Relative MIC ([2]; Acinetobacter baumannii ATCC BAA 1605 (AB-MDR), evolved line 4): 32
Relative MIC ([2]; Acinetobacter baumannii ATCC BAA 1605 (AB-MDR), evolved line 5): 16
Relative MIC ([2]; Acinetobacter baumannii ATCC BAA 1605 (AB-MDR), evolved line 6): 32
Relative MIC ([2]; Acinetobacter baumannii ATCC BAA 1605 (AB-MDR), evolved line 7): 32
Relative MIC ([2]; Acinetobacter baumannii ATCC BAA 1605 (AB-MDR), evolved line 8): 32
Relative MIC ([2]; Acinetobacter baumannii ATCC BAA 1605 (AB-MDR), evolved line 9): 32
Relative MIC ([2]; Acinetobacter baumannii ATCC BAA 1605 (AB-MDR), evolved line 10): 32
Relative MIC ([2]; Acinetobacter baumannii ATCC BAA 1605 (AB-MDR), evolved line 1): 16
Relative MIC ([2]; Acinetobacter baumannii ATCC BAA 1605 (AB-MDR), evolved line 3): 32
